These results are taken from ChEMBL document CHEMBL4840344, “Discovery of 1,8-naphthalidine derivatives as potent anti-hepatic fibrosis agents via repressing PI3K/AKT/Smad and JAK2/STAT3 pathways” (Bioorg Med Chem, 2021).

By inhibition is commonly meant the percentage by which the read-out fell short of the control.

Test [1] concerns COL1A1 promoter. Briefly: Inhibition of COL1A1 promotor activity in human LX2 cells at 20 uM incubated for 24 hrs by luciferase reporter gene assay. Format: cell-based.
Test [2] has as its system COL1A1 promoter. Briefly: Inhibition of COL1A1 promotor activity in human LX2 cells at 50 uM incubated for 24 hrs by luciferase reporter gene assay. Format: cell-based.

Calls of active or inactive are those of the source. The calls are words filed in the database; no cut-off is given here.

`Cc1ccc(-n2cc(C(=O)Nc3cc(F)cc(F)c3)c(=O)c3ccc(N(C)C)nc32)cc1OCCCCCCC[N+]1(C)CCCCC1`: the inhibition in the test on COL1A1 promoter [1] is 23.4%; in the test with COL1A1 promoter [2] it was 45.1%.

`CC[N+]1(CCCCCCCOc2cc(C)cc(-n3cc(C(=O)Nc4cc(F)cc(F)c4)c(=O)c4ccc(N(C)C)nc43)c2)CCCC1`: the inhibition came to 35.1% with COL1A1 promoter [1] and 73.2% with COL1A1 promoter [2].

Consider `CN(C)c1ccc2c(=O)c(C(=O)Nc3cc(F)cc(F)c3)cn(-c3ccc(OCCCCCCC[n+]4ccccc4)c(Cl)c3)c2n1`, for which the inhibition with COL1A1 promoter [2] came to 21.4%.

With `Cc1cc(OCCCCCCC[n+]2ccccc2)ccc1-n1cc(C(=O)Nc2cc(F)cc(F)c2)c(=O)c2ccc(N(C)C)nc21`, the inhibition entry in the test with COL1A1 promoter [1] and in the test on COL1A1 promoter [2] was “inactive” each time.

Consider `Cc1cc(-n2cc(C(=O)Nc3cc(F)cc(F)c3)c(=O)c3ccc(N(C)C)nc32)ccc1OCCCCCCC[n+]1ccccc1`, for which the inhibition entry in the test on COL1A1 promoter [1] was “inactive”. In the test with COL1A1 promoter [2], this compound returned an inhibition of 55%.

On to `CC[N+]1(CCCCCCCOc2ccc(-n3cc(C(=O)Nc4cc(F)cc(F)c4)c(=O)c4ccc(N(C)C)nc43)cc2C)CCCCC1`, for which the inhibition in the test with COL1A1 promoter [1] is 19.7%; with COL1A1 promoter [2] it was 53.4%.

On to `Cc1cc(OCCCCCCC[N+]2(C)CCN(C)CC2)cc(-n2cc(C(=O)Nc3cc(F)cc(F)c3)c(=O)c3ccc(N(C)C)nc32)c1`, for which the figures for the inhibition in the test on COL1A1 promoter [1] and in the test with COL1A1 promoter [2] were 2.8% and 38.2%, respectively.

Regarding `Cc1ccc(-n2cc(C(=O)Nc3cc(F)cc(F)c3)c(=O)c3ccc(N(C)C)nc32)cc1OCCCCCCC[N+]1(C)CCN(C)CC1`, the results for the inhibition in the test on COL1A1 promoter [1] and in the test on COL1A1 promoter [2] were 10.3% and 25%, respectively.

As to `CC[N+]1(CCCCCCCOc2ccc(-n3cc(C(=O)Nc4cc(F)cc(F)c4)c(=O)c4ccc(N(C)C)nc43)cc2Cl)CCCCC1`, the figures for the inhibition in the test on COL1A1 promoter [1] and in the test with COL1A1 promoter [2] were 14.3% and 50.4%, respectively.

For the compound `CN(C)c1ccc2c(=O)c(C(=O)Nc3cc(F)cc(F)c3)cn(-c3ccc(OCCCCCCC[N+](C)(C)C4CCCCC4)cc3Cl)c2n1`, the inhibition result in the test with COL1A1 promoter [1] and in the test on COL1A1 promoter [2] was “inactive” in each case.

Take `Cc1cc(-n2cc(C(=O)Nc3cc(F)cc(F)c3)c(=O)c3ccc(N(C)C)nc32)ccc1OCCCCCCC[N+]1(C)CCCC1`: the values for the inhibition in the test on COL1A1 promoter [1] and in the test on COL1A1 promoter [2] were 26.1% and 35.9%, respectively.

As for `CN(C)c1ccc2c(=O)c(C(=O)Nc3cc(F)cc(F)c3)cn(-c3ccc(OCCCCCCC[N+](C)(C)C4CCCCC4)cc3F)c2n1`, the inhibition result in the test with COL1A1 promoter [1] and in the test on COL1A1 promoter [2] was “inactive” each time.

With `Cc1cc(OCCCCCCC[N+](C)(C)C2CCCCC2)ccc1-n1cc(C(=O)Nc2cc(F)cc(F)c2)c(=O)c2ccc(N(C)C)nc21`, the inhibition result with COL1A1 promoter [1] and with COL1A1 promoter [2] was “inactive” in each case.

With `CN(C)c1ccc2c(=O)c(C(=O)Nc3cc(F)cc(F)c3)cn(-c3ccc(OCCCCCCC[N+]45CCN(CC4)CC5)c(Cl)c3)c2n1`, the inhibition with COL1A1 promoter [2] turned out to be 20.4%.

Turning to `Cc1cc(-n2cc(C(=O)Nc3cc(F)cc(F)c3)c(=O)c3ccc(N(C)C)nc32)ccc1OCCCCCCC[N+]1(C)CCCCC1`, the inhibition in the test on COL1A1 promoter [1] was 33%; in the test with COL1A1 promoter [2], 54.4%.

In the case of `Cc1ccc(-n2cc(C(=O)Nc3cc(F)cc(F)c3)c(=O)c3ccc(N(C)C)nc32)cc1OCCCCCCC[n+]1ccccc1`, the inhibition in the test with COL1A1 promoter [1] is 39.7%; with COL1A1 promoter [2] it was 22.2%.

As for `CN(C)c1ccc2c(=O)c(C(=O)Nc3cc(F)cc(F)c3)cn(-c3ccc(OCCCCCCC[N+]4(C)CCCC4)c(Cl)c3)c2n1`, the inhibition in the test on COL1A1 promoter [2] came to 2.59%.

Consider `CN1CC[N+](C)(CCCCCCCOc2ccc(-n3cc(C(=O)Nc4cc(F)cc(F)c4)c(=O)c4ccc(N(C)C)nc43)cc2Cl)CC1`, for which, in the test with COL1A1 promoter [2], the inhibition turned out to be 15.4%.

With `CN(C)c1ccc2c(=O)c(C(=O)Nc3cc(F)cc(F)c3)cn(-c3ccc(OCCCCCCC[N+]4(C)CCCCC4)c(Cl)c3)c2n1`, the inhibition entry with COL1A1 promoter [2] is “inactive”.

As for `CN1CC[N+](C)(CCCCCCCOc2ccc(-n3cc(C(=O)Nc4cc(F)cc(F)c4)c(=O)c4ccc(N(C)C)nc43)c(F)c2)CC1`, the inhibition result with COL1A1 promoter [1] is “inactive”.

`CC[N+]1(CCCCCCCOc2ccc(-n3cc(C(=O)Nc4cc(F)cc(F)c4)c(=O)c4ccc(N(C)C)nc43)cc2Cl)CCCC1` showed an inhibition in the test on COL1A1 promoter [2] of 23.5%.
